Measured values as given in paper PMC9295568, “Dual Inhibition of Vacuolar-ATPase and TMPRSS2 Is Required for Complete Blockade of SARS-CoV-2 Entry into Cells” (Antimicrobial Agents and Chemotherapy, 2022).
Counter-ions that a name gives are not always drawn. Like-named read-outs stand apart in the source and are kept apart here.

System: endosomal acidification in Vero cells
Test: cells
Assay type: cell-based
Conditions: for inhibition at 40 µM: Chlorocebus sabaeus, read-out: Percent Inhibition (%) of endosomal acidification
Protocol: Inhibition of endosomal acidification was measured using LysoTracker Red DND-99 (ThermoFisher). […] Data were plotted using Prism 9 (GraphPad).

[1] = Vero cells, 40 μM, singlet (n=1)

Molecule	inhibition at 40 µM [1] [%]	other results
COc1ccc(CCN2CCC(Nc3nc4ccccc4n3Cc3ccc(F)cc3)CC2)cc1 [ASTEMIZOLE]	50	–
C=CC(C)(O)CCC=C(C)CCC=C(C)C (mixture of isomers) [NEROLIDOL]	66	–
COc1ccc2cc1Oc1ccc(cc1)C[C@H]1c3cc(c(OC)cc3CCN1C)Oc1c(OC)c(OC)cc3c1[C@H](C2)N(C)CC3 [TETRANDRINE]	50	–
CC1(C)C=Cc2c(c3c(c4c(=O)c(-c5ccc(O)c(O)c5)coc24)OC(C)(C)CC3)O1 [ISOPOMIFERIN]	–	Percent Inhibition (%) of endosomal acidification [1]: 85%
Cc1cc2nc3ccc(N(C)C)cc3[s+]c2cc1N [TOLONIUM CHLORIDE]	84	–
CN(C)CC/C=C1/c2ccccc2Sc2ccc(Cl)cc21 [CHLORPROTHIXENE HYDROCHLORIDE]	57	–
CN1CCCC(n2nc(Cc3ccc(Cl)cc3)c3ccccc3c2=O)CC1 (stereo not drawn) [AZELASTINE HYDROCHLORIDE]	59	–
Clc1ccc(C(Cn2ccnc2)OCc2ccsc2Cl)c(Cl)c1 (stereo not drawn) [TIOCONAZOLE]	–	inhibition at 40 µM (Vero): 94%
O=C1c2c(O)ccc(O)c2C(=O)c2c(NCCNCCO)ccc(NCCNCCO)c21 [MITOXANTRONE HYDROCHLORIDE]	80	–
CC(NCCC(c1ccccc1)c1ccccc1)c1ccccc1 (stereo not drawn) [FENDILINE HYDROCHLORIDE]	73	–
C[C@@]12C(=O)OC(=O)[C@]1(C)[C@H]1CC[C@@H]2O1 [CANTHARIDIN]	65	–
CN1CCN(CCCN2c3ccccc3Sc3ccc(Cl)cc32)CC1 [PROCHLORPERAZINE EDISYLATE]	73	–
CN1CCC(=C2c3ccccc3C=Cc3ccccc32)CC1 [CYPROHEPTADINE HYDROCHLORIDE]	67	–
OC1(c2ccc(Cl)c(C(F)(F)F)c2)CCN(CCCC(c2ccc(F)cc2)c2ccc(F)cc2)CC1 [PENFLURIDOL]	61	–
CCCCCCCCCCCCCCCC[N+](C)(C)C [CETRIMONIUM BROMIDE]	79	–
COc1cc(NS(C)(=O)=O)ccc1Nc1c2ccccc2nc2ccccc12 [AMSACRINE]	87	–
CC(C)/N=c1\cc2n(-c3ccc(Cl)cc3)c3ccccc3nc-2cc1Nc1ccc(Cl)cc1 [CLOFAZIMINE]	80	–
CCCCCCCCNC(C)C(O)c1ccc(SC(C)C)cc1 (stereo not drawn) [SULOCTIDIL]	94	–
COc1cc(NC(C)CCCN)c2ncccc2c1 (stereo not drawn) [PRIMAQUINE PHOSPHATE]	68	–
C=C(c1ccc(C(=O)O)cc1)c1cc2c(cc1C)C(C)(C)CCC2(C)C [BEXAROTENE]	64	–
CN(C)CCCN1c2ccccc2CCc2ccccc21 [IMIPRAMINE HYDROCHLORIDE]	54	–
C1CCC(C(CC2CCCCN2)C2CCCCC2)CC1 (stereo not drawn) [PERHEXILINE MALEATE]	92	–
C[C@@H]1CC[C@@]2(OC1)O[C@H]1[C@@H](O)[C@H]3[C@@H]4CC[C@H]5C[C@@H](O[C@@H]6O[C@H](CO)[C@H](O[C@@H]7O[C@H](CO)[C@@H](O)[C@H](O[C@@H]8OC[C@@H](O)[C@H](O)[C@H]8O)[C@H]7O[C@@H]7O[C@H](CO)[C@H](O)[C@H](O[C@@H]8O[C@H](CO)[C@@H](O)[C@H](O)[C@H]8O)[C@H]7O)[C@H](O)[C@H]6O)[C@H](O)C[C@]5(C)[C@H]4CC[C@]3(C)[C@H]1[C@@H]2C [DIGITONIN]	79	–
CCOC(=O)Nc1ccc(NCc2ccc(F)cc2)nc1N [[…]]	50	–
CN(C)CCCOc1nn(Cc2ccccc2)c2ccccc12 [BENZYDAMINE HYDROCHLORIDE]	58	–
CC1CC(OC(=O)C(O)c2ccccc2)CC(C)(C)C1 (stereo not drawn) [CYCLANDELATE]	52	–
COc1ccccc1OCCNCC(O)COc1cccc2[nH]c3ccccc3c12 (stereo not drawn) [CARVEDILOL]	55	–

Molecule	inhibition at 40 µM [1] [%]	other results
CN1CCN(CCCN2c3ccccc3Sc3ccc(C(F)(F)F)cc32)CC1 [TRIFLUOPERAZINE HYDROCHLORIDE]	77	–
CCC(C)(C)C(=O)O[C@H]1C[C@@H](C)C=C2C=C[C@H](C)[C@H](CC[C@@H]3C[C@@H](O)CC(=O)O3)[C@H]21 [SIMVASTATIN]	84	–
CN(C)c1ccc(C(=C2C=CC(=[N+](C)C)C=C2)c2ccc(N(C)C)cc2)cc1 [GENTIAN VIOLET]	95	–
CCN(CC)C(C)CN1c2ccccc2Sc2ccccc21 (stereo not drawn) [ETHOPROPAZINE HYDROCHLORIDE]	70	–
MEPARTRICIN	–	Percent Inhibition (%) of endosomal acidification [1]: 52%
CCOC(=O)[C@H](CCc1ccccc1)N[C@H]1CCc2ccccc2N(CC(=O)O)C1=O [BENAZEPRIL HYDROCHLORIDE]	64	–
O=C(c1ccc(OCCN2CCCCC2)cc1)c1c(-c2ccc(O)cc2)sc2cc(O)ccc12 [RALOXIFENE HYDROCHLORIDE]	56	–
CN1CCc2c(c3ccccc3n2Cc2ccccc2)C1.CN1CCc2c(c3ccccc3n2Cc2ccccc2)C1.O=S(=O)(O)c1cccc2c(S(=O)(=O)O)cccc12 [MEBHYDROLIN NAPHTHALENESULFONATE]	–	Percent Inhibition (%) of endosomal acidification [1]: 52%
Fc1ccc([C@@H]2CCNC[C@H]2COc2ccc3c(c2)OCO3)cc1 [PAROXETINE HYDROCHLORIDE]	65	–
OCCN1CCN(CCCN2c3ccccc3Sc3ccc(Cl)cc32)CC1 [PERPHENAZINE]	93	–
CCCCC(CC)CN1CN(CC(CC)CCCC)CC(C)(N)C1 (stereo not drawn) [HEXETIDINE]	84	–
COC1=C(OC)C(=O)C(CCCCCCCCCCO)=C(C)C1=O [IDEBENONE]	63	–
CC(=O)c1ccc2c(c1)N(CCCN1CCC(CCO)CC1)c1ccccc1S2 [PIPERACETAZINE]	78	–
CNCCCN1c2ccccc2CCc2ccccc21 [DESIPRAMINE HYDROCHLORIDE]	50	–
CN(C)CCCN1c2ccccc2CCc2ccc(Cl)cc21 [CLOMIPRAMINE HYDROCHLORIDE]	83	–
COc1cc2nc(N3CCN(C(=O)c4ccco4)CC3)nc(N)c2cc1OC [PRAZOSIN HYDROCHLORIDE]	76	–
COc1ccc2nc3cc(Cl)ccc3c(Nc3cc(CN4CCCC4)c(O)c(CN4CCCC4)c3)c2n1.O=P(O)(O)O.O=P(O)(O)O.O=P(O)(O)O.O=P(O)(O)O [PYRONARIDINE TETRAPHOSPHATE]	–	Percent Inhibition (%) of endosomal acidification [1]: 70%
Cc1c(O)c(O)cc2c1CC=C1[C@@]2(C)CC[C@@]2(C)[C@@H]3C[C@](C)(C(=O)O)CC[C@]3(C)CC[C@]12C [DIHYDROCELASTROL]	96	–
CCCC(C(=O)OCCN(CC)CC)(c1ccccc1)c1ccccc1 [PROADIFEN HYDROCHLORIDE]	59	–
BITHIONATE SODIUM	–	Percent Inhibition (%) of endosomal acidification [1]: 67%
ABAMECTIN (avermectin B1a shown)	–	Percent Inhibition (%) of endosomal acidification [1]: 59%
CCN(CC)CCNc1ccc(CO)c2sc3ccccc3c(=O)c12 [HYCANTHONE]	69	–
CCN(CC)CCOC(=O)C(c1ccccc1)C1CCCCC1 (stereo not drawn) [DROFENINE HYDROCHLORIDE]	58	–
CCN(CC)CCOc1ccc(C(=C(Cl)c2ccccc2)c2ccccc2)cc1 [CLOMIPHENE CITRATE]	69	–
CC(C)NCC(O)COc1cccc2[nH]c3ccccc3c12 (stereo not drawn) [CARAZOLOL]	54	–
CN(C)c1ccc2nc3ccc(=[N+](C)C)cc-3sc2c1 [METHYLENE BLUE]	85	–
O=C(Nc1ccc(Oc2ccc(Cl)cc2)c(Cl)c1)c1cc(I)cc(I)c1O [RAFOXANIDE]	68	–
